Assay results: PubChem BioAssay AID248 (DTP/NCI, 2004)
Where “and” joins values, the source holds several entries; their conditions need not be identical. Equal entries are not always repeated. Inconclusive results and toxic doses are left out. No stated cut-off is given here; in the data, active means T/C of 150% or more; inactive means T/C below 125%.

Tested on: L1210 leukemia ip in BDF1 mice, survival T/C
Assay: NCI In Vivo Anticancer Drug Screen. Data for tumor model L1210 Leukemia (intraperitoneal) in B6D2F1 (BDF1) mice
Details: endpoint: mean survival time, higher = longer survival
Procedure, shortened: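 Survival endpoint. Drug-treated group vs vehicle group, expressed as T divided by C. Tumor passaged by transplantation.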

[1] = dose: 100.0 mg/kg/injection, schedule: Q04DX003 (ip), vehicle: Klucel (hydroxypropylcellulose) (HPC)
[2] = dose: 200.0 mg/kg/injection, schedule: Q04DX003 (ip), vehicle: Klucel (hydroxypropylcellulose) (HPC)
[3] = dose: 400.0 mg/kg/injection, schedule: Q04DX003 (ip), vehicle: Klucel (hydroxypropylcellulose) (HPC)
[4] = dose: 100.0 mg/kg/injection, schedule: Q01DX001 (ip), vehicle: carboxymethylcellulose (CMC)
[5] = dose: 200.0 mg/kg/injection, schedule: Q01DX001 (ip), vehicle: carboxymethylcellulose (CMC)
[6] = dose: 400.0 mg/kg/injection, schedule: Q01DX001 (ip), vehicle: carboxymethylcellulose (CMC)

Measured: T/C

C/C(=N\NC(N)=S)c1ccccc1
inactive: dose: 5.0 mg/kg/injection, schedule: Q01DX009 (ip), vehicle: Klucel (hydroxypropylcellulose) (HPC) 97 % of control | dose: 5.0 mg/kg/injection, schedule: Q04DX003 (ip), vehicle: Klucel (hydroxypropylcellulose) (HPC) 97 % of control | dose: 10.0 mg/kg/injection, schedule: Q01DX009 (ip), vehicle: Klucel (hydroxypropylcellulose) (HPC) 110 % of control | dose: 10.0 mg/kg/injection, schedule: Q04DX003 (ip), vehicle: Klucel (hydroxypropylcellulose) (HPC) 103 % of control | dose: 20.0 mg/kg/injection, schedule: Q01DX009 (ip), vehicle: Klucel (hydroxypropylcellulose) (HPC) 105 % of control | dose: 20.0 mg/kg/injection, schedule: Q04DX003 (ip), vehicle: Klucel (hydroxypropylcellulose) (HPC) 98 % of control and 117 % of control | dose: 30.0 mg/kg/injection, schedule: Q04DX003 (ip), vehicle: Klucel (hydroxypropylcellulose) (HPC) 95 % of control | dose: 40.0 mg/kg/injection, schedule: Q04DX003 (ip), vehicle: Klucel (hydroxypropylcellulose) (HPC) 120 % of control

Cc1cc(C)c(CCc2cc(C)c(C)cc2C)cc1C
inactive: dose: 100.0 mg/kg/injection, schedule: Q01DX009 (ip), vehicle: saline with Tween-80 93 % of control | [1] 104 % of control | dose: 200.0 mg/kg/injection, schedule: Q01DX009 (ip), vehicle: saline with Tween-80 92 % of control | [2] 93 % of control | dose: 400.0 mg/kg/injection, schedule: Q01DX009 (ip), vehicle: saline with Tween-80 87 % of control | [3] 109 % of control

O=C(c1ccccc1)N1C(c2ccccc2)C1(c1ccccc1)C1(c2ccccc2)SCCCS1 (stereo not drawn)
inactive: dose: 100.0 mg/kg/injection, schedule: Q01DX009 (ip), vehicle: Klucel (hydroxypropylcellulose) (HPC) 94 % of control | [1] 108 % of control | dose: 200.0 mg/kg/injection, schedule: Q01DX009 (ip), vehicle: Klucel (hydroxypropylcellulose) (HPC) 101 % of control | [2] 100 % of control | dose: 400.0 mg/kg/injection, schedule: Q01DX009 (ip), vehicle: Klucel (hydroxypropylcellulose) (HPC) 91 % of control | [3] 97 % of control

Nc1ncnc2c1c(C(=O)NO)cn2C1OC(CO)C(O)C1O (stereo not drawn)
active: dose: 6.25 mg/kg/injection, schedule: Q01DX009 (ip), vehicle: saline 153 % of control | dose: 12.5 mg/kg/injection, schedule: Q01DX009 (ip), vehicle: saline 156 % of control and 171 % of control
inactive: dose: 25.0 mg/kg/injection, schedule: Q01DX005 (ip), vehicle: saline 108 % of control

O=C(Oc1ccccc1)C(Cc1ccccc1)(Cc1ccccc1)C(=O)Oc1ccccc1
inactive: [4] 101 % of control | [5] 95 % of control | [6] 93 % of control

Cc1ccc(S(=O)(=O)NC(C(=O)O)C(C)C)cc1 (stereo not drawn)
inactive: dose: 100.0 mg/kg/injection, schedule: Q04DX003 (ip), vehicle: saline with Tween-80 102 % of control | dose: 200.0 mg/kg/injection, schedule: Q04DX003 (ip), vehicle: saline with Tween-80 100 % of control | dose: 400.0 mg/kg/injection, schedule: Q04DX003 (ip), vehicle: saline with Tween-80 102 % of control

CC(C)(C)C12N=NCC1C(=O)C1(C(C)(C)C)OC1C2=O (stereo not drawn)
inactive: dose: 100.0 mg/kg/injection, schedule: Q01DX001 (ip), vehicle: saline with Tween-80 102 % of control | dose: 200.0 mg/kg/injection, schedule: Q01DX001 (ip), vehicle: saline with Tween-80 97 % of control | dose: 400.0 mg/kg/injection, schedule: Q01DX001 (ip), vehicle: saline with Tween-80 94 % of control

O=C(O)c1cccc(C(=O)O)n1
inactive: dose: 75.0 mg/kg/injection, schedule: Q01DX001 (ip), vehicle: acetone 98 % of control | dose: 150.0 mg/kg/injection, schedule: Q01DX001 (ip), vehicle: acetone 97 % of control

C[n+]1ccc(Cl)c2ccc(Cl)cc21
inactive: dose: 10.0 mg/kg/injection, schedule: Q01DX001 (ip), vehicle: saline 100 % of control | dose: 20.0 mg/kg/injection, schedule: Q01DX001 (ip), vehicle: saline 102 % of control | dose: 40.0 mg/kg/injection, schedule: Q01DX001 (ip), vehicle: saline 102 % of control

O=[N+]([O-])c1ccc(SCc2ccc(Br)cc2)c([N+](=O)[O-])c1
inactive: [4] 98 % of control | [5] 104 % of control | [6] 95 % of control

CN=C(N)c1ccc(N=C(N)c2ccc(N=C(N)c3ccc(NC(=O)c4ccc(C(=O)Nc5ccc(C(N)=Nc6ccc(C(N)=Nc7ccc(C(N)=NC)cc7)cc6)cc5)cc4)cc3)cc2)cc1
inactive: dose: 6.25 mg/kg/injection, schedule: Q01DX Z (ip), vehicle: water 110 % of control | dose: 12.5 mg/kg/injection, schedule: Q01DX Z (ip), vehicle: water 120 % of control | dose: 50.0 mg/kg/injection, schedule: Q01DX Z (ip), vehicle: water 121 % of control
